Measured values: ChEMBL document CHEMBL1201862, “PubChem BioAssay data set” (2004)
The source made the active and inactive calls.

Legend:
[1] = biological target: 5-hydroxytryptamine receptor 2A (Mus musculus, UniProt P35363); assay type: functional, cell-based;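 also: CHO-K1 cells with tagged receptor and beta-arrestin; agonist potency measured as compound-induced activation of the receptor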
Mu-type opioid receptor = Mu-type opioid receptor (Homo sapiens, UniProt P35372); assay type: functional, cell-based;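 also: U2OS cells with beta-arrestin recruitment to OPRM1 by beta-gal complementation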
[2] = biological target: T1, Small ubiquitin-related modifier 1 (Homo sapiens, UniProt P63165); test: SUMO1 protein interaction blockers, potency – biochemical, fluorescence polarization, uHTS hits, dose response (AID 624382); assay type: functional; conditions: read-out: IC50_Mean
[3] = biological target: T2, Corticotropin-releasing factor receptor 2/Corticotropin-releasing factor-binding protein (Homo sapiens, UniProt P24387+Q13324); test: activators of CRF receptor 2 with binding protein – uHTS hits, confirmation (AID 602473); assay type: functional; conditions: read-out: EC50_Mean
T2 sequence (Q13324 whole entry): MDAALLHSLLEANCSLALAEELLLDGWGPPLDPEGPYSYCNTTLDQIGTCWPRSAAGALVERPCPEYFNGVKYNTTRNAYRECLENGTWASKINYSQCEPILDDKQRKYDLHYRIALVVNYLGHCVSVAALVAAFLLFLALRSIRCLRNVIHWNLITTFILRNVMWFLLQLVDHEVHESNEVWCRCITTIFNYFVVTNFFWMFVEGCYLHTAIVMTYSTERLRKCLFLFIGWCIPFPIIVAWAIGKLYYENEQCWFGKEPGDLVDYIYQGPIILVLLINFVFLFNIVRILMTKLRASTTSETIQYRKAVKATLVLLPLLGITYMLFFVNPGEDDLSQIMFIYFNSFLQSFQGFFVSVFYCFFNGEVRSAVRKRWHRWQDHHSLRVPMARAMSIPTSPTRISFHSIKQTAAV
T2 sequence (P24387 whole entry): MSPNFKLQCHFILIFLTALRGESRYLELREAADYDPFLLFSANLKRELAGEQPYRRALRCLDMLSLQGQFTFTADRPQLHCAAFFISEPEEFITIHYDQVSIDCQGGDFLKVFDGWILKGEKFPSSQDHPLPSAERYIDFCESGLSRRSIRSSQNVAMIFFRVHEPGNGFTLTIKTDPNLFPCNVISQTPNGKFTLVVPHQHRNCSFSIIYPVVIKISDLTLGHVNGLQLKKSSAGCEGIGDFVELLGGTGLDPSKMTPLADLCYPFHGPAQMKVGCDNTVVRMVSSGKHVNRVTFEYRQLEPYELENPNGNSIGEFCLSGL

[4] = biological target: T1, Small ubiquitin-related modifier 1; test: SUMO1 protein-protein binding blockers, potency – biochemical, FRET, dose response (AID 624383); assay type: functional; conditions: read-out: IC50_Mean
[5] = biological target: SWI/SNF-related matrix-associated actin-dependent regulator of chromatin subfamily A member 2 (Homo sapiens, UniProt P51531); test: Luminescence-based cell-based high throughput dose response assay to identify activators of the function of SWI/SNF related, matrix associated, actin dependent regulator of chromatin, subfamily a, member 2 (SMARCA2, BRM).; assay type: functional
[6] = Counterscreen for activators of the function of SWI/SNF related, matrix associated, actin dependent regulator of chromatin, subfamily a, member 2 (SMARCA2, BRM): Luminescence-based cell-based high throughput dose response assay to identify non-selective compounds using the VP16 reporter assay.; assay type: functional
Cytochrome P450 2C19 = Cytochrome P450 2C19 (Homo sapiens, UniProt P33261); test: Cytochrome panel assay with activity outcomes. Panel member name: p450-cyp2c19 Compounds with AC50 equal or less than 10 uM are considered active; assay type: functional; conditions: read-out: AC50
[7] = biological target: T3, Heat shock factor protein 1 (Mus musculus, UniProt P38532); test: enhancement of HSF1-driven luciferase signal – cell-based, NIH3T3, luminescence, dose retest, confirmation (AID 435004); assay type: functional;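 also: stress induced by proteasome inhibitor MG132 added 30 min after compound; luciferase reporter driven by HSF1 response element in NIH3T3 cells; actives raise luminescence as potentiators of the MG132 stress response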
T3 sequence (P38532 whole entry): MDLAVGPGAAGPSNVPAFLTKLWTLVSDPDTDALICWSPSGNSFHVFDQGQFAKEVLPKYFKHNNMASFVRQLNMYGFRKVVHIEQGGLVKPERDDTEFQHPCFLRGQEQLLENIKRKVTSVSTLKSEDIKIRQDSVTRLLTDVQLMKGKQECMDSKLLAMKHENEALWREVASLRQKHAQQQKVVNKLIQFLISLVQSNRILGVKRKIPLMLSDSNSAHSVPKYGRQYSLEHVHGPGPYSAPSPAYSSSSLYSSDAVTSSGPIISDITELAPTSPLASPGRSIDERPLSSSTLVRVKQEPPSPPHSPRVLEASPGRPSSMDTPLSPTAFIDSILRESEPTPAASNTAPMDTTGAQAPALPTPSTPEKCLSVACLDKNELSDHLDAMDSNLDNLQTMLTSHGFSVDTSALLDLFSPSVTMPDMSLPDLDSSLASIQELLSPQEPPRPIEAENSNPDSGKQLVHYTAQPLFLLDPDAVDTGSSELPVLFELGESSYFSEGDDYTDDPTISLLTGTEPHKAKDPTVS

[8] = biological target: T4, Sentrin-specific protease 1 (Homo sapiens, UniProt Q9P0U3); test: SENP1 catalytic domain blockers, concentration series – biochemical, kinetic FRET, dose response (AID 651697); assay type: functional; conditions: read-out: IC50_Mean
T4 sequence (Q9P0U3 whole entry): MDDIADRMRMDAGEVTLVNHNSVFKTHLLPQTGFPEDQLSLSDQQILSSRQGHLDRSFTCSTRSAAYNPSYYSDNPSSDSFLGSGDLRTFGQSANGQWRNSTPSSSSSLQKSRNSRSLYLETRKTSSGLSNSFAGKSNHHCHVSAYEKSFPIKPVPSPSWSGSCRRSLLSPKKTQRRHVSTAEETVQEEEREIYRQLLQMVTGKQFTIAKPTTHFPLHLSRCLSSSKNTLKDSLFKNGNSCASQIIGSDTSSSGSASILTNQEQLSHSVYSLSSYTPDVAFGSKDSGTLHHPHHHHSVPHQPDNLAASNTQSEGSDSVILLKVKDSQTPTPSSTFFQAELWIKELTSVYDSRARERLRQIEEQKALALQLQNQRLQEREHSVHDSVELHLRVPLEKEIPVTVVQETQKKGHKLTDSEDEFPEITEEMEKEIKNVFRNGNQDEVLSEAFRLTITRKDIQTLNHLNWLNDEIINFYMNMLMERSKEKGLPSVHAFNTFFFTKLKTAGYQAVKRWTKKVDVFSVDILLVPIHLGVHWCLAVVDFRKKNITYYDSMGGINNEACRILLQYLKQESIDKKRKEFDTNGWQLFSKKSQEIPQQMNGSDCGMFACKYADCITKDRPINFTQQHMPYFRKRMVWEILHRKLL

[9] = biological target: T4, Sentrin-specific protease 1; test: Dose response confirmation of small molecule inhibitors of the catalytic domain of the SUMO protease, SENP1 in a FRET assay.; assay type: functional; conditions: read-out: IC50_Mean
[10] = biological target: T5, Methionyl-tRNA synthetase, putative (Trypanosoma brucei brucei, UniProt Q38C91); assay type: functional, Trypanosoma brucei brucei strain 927/4 GUTat10.1
T5 sequence (Q38C91 whole entry): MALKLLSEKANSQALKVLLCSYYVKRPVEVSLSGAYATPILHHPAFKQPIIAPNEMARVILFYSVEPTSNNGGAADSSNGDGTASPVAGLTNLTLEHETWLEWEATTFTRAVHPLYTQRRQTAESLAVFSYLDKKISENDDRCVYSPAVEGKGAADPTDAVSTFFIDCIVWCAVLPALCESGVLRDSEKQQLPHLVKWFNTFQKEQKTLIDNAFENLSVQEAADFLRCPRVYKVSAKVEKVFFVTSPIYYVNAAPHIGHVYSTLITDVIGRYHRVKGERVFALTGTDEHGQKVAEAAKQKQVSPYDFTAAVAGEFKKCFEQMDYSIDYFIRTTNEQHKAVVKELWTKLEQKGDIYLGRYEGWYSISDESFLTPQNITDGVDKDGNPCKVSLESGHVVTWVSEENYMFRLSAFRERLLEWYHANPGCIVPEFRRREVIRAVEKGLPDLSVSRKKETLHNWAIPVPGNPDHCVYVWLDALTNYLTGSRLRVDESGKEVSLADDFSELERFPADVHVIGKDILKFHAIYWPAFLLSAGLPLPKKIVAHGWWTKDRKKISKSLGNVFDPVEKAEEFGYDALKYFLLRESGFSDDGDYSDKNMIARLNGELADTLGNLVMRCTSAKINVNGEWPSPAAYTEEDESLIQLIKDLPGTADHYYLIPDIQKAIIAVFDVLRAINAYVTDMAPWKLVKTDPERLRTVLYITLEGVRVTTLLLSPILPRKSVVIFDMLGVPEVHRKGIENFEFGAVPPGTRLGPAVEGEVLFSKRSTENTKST

[11] = biological target: T5, Methionyl-tRNA synthetase, putative; assay type: functional, Trypanosoma brucei brucei strain 927/4 GUTat10.1; remark: listed apart in the source
[12] = fluconazole-exposed Candida albicans growth modulators – fluorescence, retest, confirmation (AID 2467); assay type: functional, cell-based
[13] = NIH-3T3 fibroblast cytotoxicity, dose response, cytotoxicity control, cell-based, fluorescence, Alamar Blue, secondary assay (AID 2327); assay type: functional;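 also: NIH-3T3 mouse fibroblasts cultured with fluconazole at 8 µg/mL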
[14] = Counterscreen for inhibitors of Trypanosoma brucei methionyl tRNA synthetase (MetRS): Luminescence-based cell-based high throughput dose response assay to identify compounds that are cytotoxic to Jurkat human T lymphocyte cells.; assay type: functional
Albumin = Albumin (Bos taurus, UniProt P02769); test: Counterscreen for inhibitors of T-cell receptor (TCR)-CD3 interaction: Fluorescence-based biochemical high throughput dose response assay to identify inhibitors of T-cell receptor (TCR)-CD3 interaction using a TAMRA-labeled BSA probe.; assay type: functional
A549 = test: viability loss in A549 cells – cell-based, plate reader, cherry-pick samples, cytotoxicity control, dose response (AID 687028); assay type: functional; conditions: Homo sapiens
[15] = biological target: FAD-linked sulfhydryl oxidase ALR (Homo sapiens, UniProt P55789); test: ALR-catalysed DTT oxidation blockers – biochemical, H2O2 detection, luminescence, cherry-pick, dose response (AID 493248)
[16] = biological target: T6, Rac GTPase-activating protein 1 (Homo sapiens, UniProt Q9H0H5); test: blockers of MgcRacGAP-driven Rac1 GTP hydrolysis – biochemical, ADP Hunter fluorescence, primary and confirmatory, confirmation (AID 624330); assay type: functional
T6 sequence (Q9H0H5 whole entry): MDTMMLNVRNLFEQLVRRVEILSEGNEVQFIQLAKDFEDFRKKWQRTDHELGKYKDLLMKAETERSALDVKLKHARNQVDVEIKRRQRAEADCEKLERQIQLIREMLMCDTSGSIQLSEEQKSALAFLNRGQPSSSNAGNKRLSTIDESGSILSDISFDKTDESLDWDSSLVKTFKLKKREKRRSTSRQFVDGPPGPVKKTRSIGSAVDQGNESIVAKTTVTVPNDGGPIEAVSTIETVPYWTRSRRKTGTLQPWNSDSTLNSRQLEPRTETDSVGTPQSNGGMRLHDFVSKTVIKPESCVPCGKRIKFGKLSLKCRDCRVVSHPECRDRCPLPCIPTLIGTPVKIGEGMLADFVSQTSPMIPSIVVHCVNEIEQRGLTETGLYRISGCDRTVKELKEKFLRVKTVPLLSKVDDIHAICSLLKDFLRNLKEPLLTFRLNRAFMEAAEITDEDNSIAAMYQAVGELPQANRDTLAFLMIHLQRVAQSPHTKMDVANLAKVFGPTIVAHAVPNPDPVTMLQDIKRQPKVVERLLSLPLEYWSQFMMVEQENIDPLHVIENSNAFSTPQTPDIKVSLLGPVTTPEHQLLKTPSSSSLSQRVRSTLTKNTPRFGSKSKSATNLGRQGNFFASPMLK

Large T antigen = Large T antigen (Simian virus 40, UniProt P03070); assay type: functional, Betapolyomavirus macacae;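 also: Confirmatory-stage PubChem screen for compounds that inhibit SV40 T antigen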
[17] = IGROV1 cell killing – plate reader, dry powder samples, PAX8 inhibitor project, dose response (AID 743043); assay type: functional, cell-based; conditions: IGROV-1
Paired box protein Pax-8 = Paired box protein Pax-8 (Homo sapiens, UniProt Q06710); test: PAX8 transcriptional activity inhibition in RMG-I – RMG-I cells, luciferase, cherry-pick, dose response (AID 687027); assay type: functional, cell-based;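 also: luciferase reporter driven by Pax8 target thyroperoxidase promoter measured by SteadyGlo luminescence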
[18] = cytotoxicity in HEK293 background cells – cell-based, dry powder, set 2, counter-screen for EBV LMP1 inhibitor project, dose response (AID 624374); assay type: functional

Sequence of Mu-type opioid receptor (P35372 whole entry): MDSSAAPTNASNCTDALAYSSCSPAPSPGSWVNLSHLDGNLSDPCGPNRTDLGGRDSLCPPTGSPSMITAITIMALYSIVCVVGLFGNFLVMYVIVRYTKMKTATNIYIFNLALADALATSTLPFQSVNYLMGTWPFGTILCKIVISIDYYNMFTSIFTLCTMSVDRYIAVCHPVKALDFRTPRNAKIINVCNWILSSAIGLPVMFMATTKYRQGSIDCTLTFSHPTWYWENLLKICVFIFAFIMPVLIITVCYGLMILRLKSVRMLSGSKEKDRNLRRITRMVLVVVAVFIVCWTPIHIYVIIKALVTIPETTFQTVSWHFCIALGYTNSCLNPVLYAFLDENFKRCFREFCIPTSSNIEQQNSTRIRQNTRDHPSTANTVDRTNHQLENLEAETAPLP
Sequence of 5-hydroxytryptamine receptor 2A (P35363 whole entry): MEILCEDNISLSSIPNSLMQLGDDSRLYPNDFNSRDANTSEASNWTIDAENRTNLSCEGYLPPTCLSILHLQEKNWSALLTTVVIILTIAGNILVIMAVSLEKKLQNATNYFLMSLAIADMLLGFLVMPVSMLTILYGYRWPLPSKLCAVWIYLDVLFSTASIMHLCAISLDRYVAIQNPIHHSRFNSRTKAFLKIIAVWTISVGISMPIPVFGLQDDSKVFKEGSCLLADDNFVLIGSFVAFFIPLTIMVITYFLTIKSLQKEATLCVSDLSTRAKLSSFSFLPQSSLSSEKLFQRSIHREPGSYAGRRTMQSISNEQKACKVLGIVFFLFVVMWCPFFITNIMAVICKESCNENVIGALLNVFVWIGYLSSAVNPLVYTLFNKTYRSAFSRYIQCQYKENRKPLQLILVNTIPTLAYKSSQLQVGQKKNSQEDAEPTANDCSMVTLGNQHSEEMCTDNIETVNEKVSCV
Sequence of Albumin (P02769 whole entry): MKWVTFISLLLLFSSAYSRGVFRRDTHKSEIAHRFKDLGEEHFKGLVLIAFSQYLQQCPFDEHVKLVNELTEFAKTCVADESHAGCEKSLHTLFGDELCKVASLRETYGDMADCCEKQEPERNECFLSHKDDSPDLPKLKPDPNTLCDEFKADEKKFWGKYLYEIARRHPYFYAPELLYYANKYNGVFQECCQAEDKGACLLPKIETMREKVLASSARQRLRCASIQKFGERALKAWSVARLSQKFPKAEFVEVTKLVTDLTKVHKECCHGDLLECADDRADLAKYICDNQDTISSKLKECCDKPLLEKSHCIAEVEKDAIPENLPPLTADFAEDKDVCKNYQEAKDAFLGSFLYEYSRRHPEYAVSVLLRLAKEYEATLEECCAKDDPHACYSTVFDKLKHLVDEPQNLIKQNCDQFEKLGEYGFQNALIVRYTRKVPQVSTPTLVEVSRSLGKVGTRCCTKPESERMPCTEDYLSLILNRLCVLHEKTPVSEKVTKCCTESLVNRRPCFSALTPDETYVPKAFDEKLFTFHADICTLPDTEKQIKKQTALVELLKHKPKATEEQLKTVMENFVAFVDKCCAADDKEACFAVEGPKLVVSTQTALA
T1 sequence (P63165 whole entry): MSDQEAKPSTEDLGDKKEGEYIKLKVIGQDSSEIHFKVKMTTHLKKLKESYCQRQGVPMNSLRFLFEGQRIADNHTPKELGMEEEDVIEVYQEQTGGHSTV
Sequence of Cytochrome P450 2C19 (P33261 whole entry): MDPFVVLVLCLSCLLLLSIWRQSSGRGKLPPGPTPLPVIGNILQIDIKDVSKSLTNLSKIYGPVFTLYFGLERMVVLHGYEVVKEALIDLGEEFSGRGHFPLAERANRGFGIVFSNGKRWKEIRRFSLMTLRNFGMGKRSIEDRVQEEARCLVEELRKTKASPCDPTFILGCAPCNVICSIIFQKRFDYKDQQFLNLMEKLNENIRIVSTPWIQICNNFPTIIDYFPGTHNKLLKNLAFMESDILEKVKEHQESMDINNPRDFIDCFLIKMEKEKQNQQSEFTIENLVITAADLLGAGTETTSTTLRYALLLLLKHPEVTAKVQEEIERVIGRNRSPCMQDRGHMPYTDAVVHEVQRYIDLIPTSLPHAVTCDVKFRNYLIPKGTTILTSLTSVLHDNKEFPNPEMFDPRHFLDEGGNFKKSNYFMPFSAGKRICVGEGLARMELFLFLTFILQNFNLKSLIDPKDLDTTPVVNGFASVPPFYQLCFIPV
Sequence of SWI/SNF-related matrix-associated actin-dependent regulator of chromatin subfamily A member 2 (P51531 whole entry): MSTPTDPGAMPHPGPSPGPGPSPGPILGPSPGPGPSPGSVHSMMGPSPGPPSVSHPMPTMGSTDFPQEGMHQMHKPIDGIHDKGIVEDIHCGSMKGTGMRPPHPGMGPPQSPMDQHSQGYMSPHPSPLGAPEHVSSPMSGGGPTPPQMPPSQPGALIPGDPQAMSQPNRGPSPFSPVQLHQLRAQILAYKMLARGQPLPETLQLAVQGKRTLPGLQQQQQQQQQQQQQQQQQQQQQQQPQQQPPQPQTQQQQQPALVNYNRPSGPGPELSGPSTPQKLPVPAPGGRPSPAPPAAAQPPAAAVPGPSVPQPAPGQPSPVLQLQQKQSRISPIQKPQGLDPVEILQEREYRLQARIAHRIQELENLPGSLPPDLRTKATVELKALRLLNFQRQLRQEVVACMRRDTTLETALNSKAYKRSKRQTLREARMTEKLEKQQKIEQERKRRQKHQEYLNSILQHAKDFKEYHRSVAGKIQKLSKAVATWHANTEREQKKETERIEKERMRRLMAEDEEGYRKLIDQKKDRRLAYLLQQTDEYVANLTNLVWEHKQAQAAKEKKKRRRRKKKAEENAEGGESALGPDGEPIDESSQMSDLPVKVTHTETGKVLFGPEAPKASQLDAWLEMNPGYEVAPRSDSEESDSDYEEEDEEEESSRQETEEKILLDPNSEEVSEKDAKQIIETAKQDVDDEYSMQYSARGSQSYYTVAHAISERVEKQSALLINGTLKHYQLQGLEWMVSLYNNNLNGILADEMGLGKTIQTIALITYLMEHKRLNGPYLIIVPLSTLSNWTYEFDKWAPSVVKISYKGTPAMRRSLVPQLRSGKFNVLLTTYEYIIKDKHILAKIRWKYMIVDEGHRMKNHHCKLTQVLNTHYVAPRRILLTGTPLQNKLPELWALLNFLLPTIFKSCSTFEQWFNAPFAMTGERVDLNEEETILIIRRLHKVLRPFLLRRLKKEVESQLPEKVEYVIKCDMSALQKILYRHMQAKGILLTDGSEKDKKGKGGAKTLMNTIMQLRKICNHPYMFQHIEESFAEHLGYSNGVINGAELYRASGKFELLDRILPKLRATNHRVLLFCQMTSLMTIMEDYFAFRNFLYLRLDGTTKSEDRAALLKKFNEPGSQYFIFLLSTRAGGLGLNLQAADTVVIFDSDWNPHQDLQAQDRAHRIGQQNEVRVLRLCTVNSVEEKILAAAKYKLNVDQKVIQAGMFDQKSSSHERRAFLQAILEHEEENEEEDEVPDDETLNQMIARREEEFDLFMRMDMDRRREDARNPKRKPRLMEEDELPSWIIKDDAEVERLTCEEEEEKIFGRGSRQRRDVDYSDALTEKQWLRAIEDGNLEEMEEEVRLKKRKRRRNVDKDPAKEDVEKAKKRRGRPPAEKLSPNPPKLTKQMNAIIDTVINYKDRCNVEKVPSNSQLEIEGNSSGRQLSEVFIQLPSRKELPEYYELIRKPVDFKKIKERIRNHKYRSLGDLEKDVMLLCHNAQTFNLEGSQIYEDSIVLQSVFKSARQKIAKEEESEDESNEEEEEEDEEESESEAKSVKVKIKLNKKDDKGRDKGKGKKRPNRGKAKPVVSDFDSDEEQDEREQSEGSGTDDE
Sequence of FAD-linked sulfhydryl oxidase ALR (P55789 whole entry): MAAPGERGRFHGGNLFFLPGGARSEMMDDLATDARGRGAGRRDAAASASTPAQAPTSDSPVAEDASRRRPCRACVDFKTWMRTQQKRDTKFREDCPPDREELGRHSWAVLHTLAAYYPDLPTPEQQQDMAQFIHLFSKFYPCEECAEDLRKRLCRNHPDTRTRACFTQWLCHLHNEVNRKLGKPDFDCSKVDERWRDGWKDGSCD
Sequence of Large T antigen (P03070 whole entry): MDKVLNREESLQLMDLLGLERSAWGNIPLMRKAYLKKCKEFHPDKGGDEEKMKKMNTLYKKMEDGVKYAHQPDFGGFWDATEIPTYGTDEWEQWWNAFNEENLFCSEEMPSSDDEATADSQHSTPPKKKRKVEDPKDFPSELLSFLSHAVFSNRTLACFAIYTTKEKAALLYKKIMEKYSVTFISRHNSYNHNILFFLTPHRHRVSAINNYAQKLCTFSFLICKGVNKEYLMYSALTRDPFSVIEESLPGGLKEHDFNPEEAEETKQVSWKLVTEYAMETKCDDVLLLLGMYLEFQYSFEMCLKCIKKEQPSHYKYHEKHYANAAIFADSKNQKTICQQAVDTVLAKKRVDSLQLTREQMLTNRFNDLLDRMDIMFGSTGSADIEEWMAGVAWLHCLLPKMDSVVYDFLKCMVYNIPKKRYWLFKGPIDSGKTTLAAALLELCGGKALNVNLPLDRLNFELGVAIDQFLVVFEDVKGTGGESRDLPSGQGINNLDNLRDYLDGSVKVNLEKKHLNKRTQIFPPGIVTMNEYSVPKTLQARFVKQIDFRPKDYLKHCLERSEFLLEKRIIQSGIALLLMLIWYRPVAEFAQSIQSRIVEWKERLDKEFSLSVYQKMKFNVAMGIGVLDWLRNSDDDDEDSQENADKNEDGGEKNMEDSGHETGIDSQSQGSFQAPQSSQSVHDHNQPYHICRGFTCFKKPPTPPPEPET
Sequence of Paired box protein Pax-8 (Q06710 whole entry): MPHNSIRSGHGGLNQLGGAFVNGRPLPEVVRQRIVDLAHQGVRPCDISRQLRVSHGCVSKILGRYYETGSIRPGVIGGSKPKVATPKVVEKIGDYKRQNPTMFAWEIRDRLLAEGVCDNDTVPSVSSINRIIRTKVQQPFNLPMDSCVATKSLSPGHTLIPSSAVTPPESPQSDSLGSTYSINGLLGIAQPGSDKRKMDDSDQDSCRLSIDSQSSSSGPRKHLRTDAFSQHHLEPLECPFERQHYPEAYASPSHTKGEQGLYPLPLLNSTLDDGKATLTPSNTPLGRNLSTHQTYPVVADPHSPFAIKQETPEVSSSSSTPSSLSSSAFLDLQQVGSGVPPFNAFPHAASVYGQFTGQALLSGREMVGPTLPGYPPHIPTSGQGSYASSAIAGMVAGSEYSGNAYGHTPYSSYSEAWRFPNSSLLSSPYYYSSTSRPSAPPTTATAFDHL

## Cc1ccsc1CN1CCN(c2ccccn2)CC1
[1]
  EC50: 0.282 µM (active)
Mu-type opioid receptor
  EC50: 92.5 µM (inactive)

## COC(=O)c1ccc2c(c1)C(=O)/C(=C/c1ccc(O)cc1)O2
[2]
  IC50: > 66.6 µM (inactive)
[3]
  EC50: > 53 µM (inactive)
[4]
  IC50: 7.4 µM (active)

## Cc1cccc(NC(=O)c2ccc([N+](=O)[O-])o2)n1
[5]
  EC50: > 91.1 µM (inactive)
[6]
  EC50: > 91.1 µM (inactive)
Cytochrome P450 2C19
  AC50: 20 µM (inconclusive)

## CC(CCc1ccccc1)NC(=O)CN1CCc2ccccc2C1 (stereo not drawn)
[7]
  EC50: > 260 µM (inactive)
[1]
  EC50: 76.1 µM (inactive)
Mu-type opioid receptor
  EC50: 92.5 µM (inactive)

## CCOc1cc(/C=C2\SC(=S)N(NS(=O)(=O)c3ccccc3)C2=O)ccc1O
[8]
  IC50: 3.73 µM (active)
[9]
  IC50: 2.41 µM (active)
[10]
  IC50: 122 µM (inactive)
[11]
  IC50: 41.8 µM (inactive)
[12]
  EC50: 1.88 µM (active)
[13]
  EC50: > 150 µM (inactive)
[14]
  IC50: 83.3 µM (inactive)

## Nc1ccc([N+](=O)[O-])cc1C(=O)NNC(=O)c1ccco1
Albumin
  IC50: > 94.1 µM (inactive)

## O=C(NCc1ccc2c(c1)OCO2)C(=O)NCC1OCCCN1S(=O)(=O)c1ccccc1 (stereo not drawn)
A549
  AC50: 27.9 µM (active)

## Oc1ccc(/C=N/Nc2ncnc3c2ncn3Cc2ccccc2)cc1O
[15]
  AC50: 2.19 µM (active)
[16]
  IC50: 23 µM (active)
Large T antigen
  IC50: 3.87 µM (active)
Albumin
  IC50: > 94.1 µM (inactive)

## CC(C)(C)NC(=O)C(c1cccc2ccccc12)n1c(=O)c(-c2ccccc2)nc2ccccc21 (stereo not drawn)
A549
  AC50: 8.91 µM (active)

## C[C@@H]1CN([C@@H](C)CO)C(=O)Cc2cc(NS(=O)(=O)c3ccc(Cl)cc3)ccc2O[C@H]1CN(C)Cc1ccc(Cl)c(Cl)c1
[17]
  AC50: 38.5 µM (active)
Paired box protein Pax-8
  AC50: 4.26 µM (active)

## O=C(Cc1ccccn1)NCC[C@@H]1CC[C@@H](NC(=O)Nc2ccc(Cl)cc2)[C@H](CO)O1
[18]
  AbsAC35: 175.41 µM
